# Measurements published in US10626109B2, “N-hetaryl(thio)carbonyl-2-(benzocycloalken-1-yl)cyclamines and their use as fungicides” (BAYER CROPSCIENCE AKTIENGESELLSCHAFT, priority 2013, dated 2020).
# Marks after values point to notes of the source that are not given here.
# Key:
# Sphaerotheca fuliginea = test: In vivo preventive test on Sphaerotheca fuliginea (powdery mildew on cucurbits); conditions: for Efficacy: Table F1; for protection: in words, at a dose of 500 and 100 ppm of active ingredient, analogue 13 in very similar conditions
# Protocol: (§1) [table] […] The young plants of gherkin are treated by spraying the active ingredient prepared as described above. […] After 24 hours, the plants are contaminated by spraying the leaves with an aqueous suspension of Sphaerotheca fuliginea spores. The contaminated gherkin plants are incubated for 72 hours at 18° C. and at 100% relative humidity and then for 12 days at 20° C. and at 70-80% relative humidity. The test is evaluated 15 days after the inoculation. 0% means an efficacy which corresponds to that of the control plants while an efficacy of 100% means that no disease is observed.
# Puccinia recondita = test: In vivo preventive test on Puccinia recondita (brown rust on wheat); conditions: for Efficacy: Table C2; for protection: in words, at a dose of 500 and 100 ppm of active ingredient, analogues 11 and 13 in very similar conditions
# Protocol: as §1, with “wheat” for “gherkin”, “Puccinia recondita” for “Sphaerotheca fuliginea”, “24” for “72”, “20°” for “18°”, “10” for “12”, “11” for “15”
# [1] = log P by HPLC on reversed-phase column (C 18), EEC Directive 79/831 Annex V.A8; type: physicochemical; conditions: Table 1, HPLC, 0.1% aqueous formic acid and acetonitrile, 40° C.
# Protocol: In table 1, the log P values were determined in accordance with EEC Directive 79/831 Annex V.A8 by HPLC (High Performance Liquid Chromatography) on a reversed-phase column (C 18), using the method described below: Temperature: 40° C.; Mobile phases: 0.1% aqueous formic acid and acetonitrile; linear gradient from 10% acetonitrile to 90% acetonitrile. Calibration was carried out using unbranched alkan-2-ones (comprising 3 to 16 carbon atoms) with known log P values (determination of the log P values by the retention times using linear interpolation between two successive alkanones). lambda-max-values were determined using UV-spectra from 200 nm to 400 nm and the peak values of the chromatographic signals. In table 2, M+H (Apcl+) and log P are defined as for table 1.
# Uromyces appendiculatus = test: In vivo preventive test on Uromyces appendiculatus (bean rust); conditions: for protection: in words, at a dose of 500 and 100 ppm of active ingredient
# Protocol: [table] The active ingredients are made soluble and homogenized in a mixture of Dimethyl sulfoxide/Acetone//Tween® 80 and then diluted in water to the desired concentration. The young plants of bean are treated by spraying the active ingredient prepared as described above. Control plants are treated only with an aqueous solution of Acetone/Dimethyl sulfoxide/Tween® 80. After 24 hours, the plants are contaminated by spraying the leaves with an aqueous suspension of Uromyces appendiculatus spores. The contaminated bean plants are incubated for 24 hours at 20° C. and at 100% relative humidity and then for 10 days at 20° C. and at 70-80% relative humidity. The test is evaluated 11 days after the inoculation. 0% means an efficacy which corresponds to that of the control plants while an efficacy of 100% means that no disease is observed.
# [2] = dose 100 ppm, formulated in DMF with 2% of alkylarylpolyglycolether
# [3] = dose 500 ppm, formulated in DMF with 2% of alkylarylpolyglycolether
# [4] = second value of a mixture of two diastereoisomers
# [5] = single value, or first value of a mixture of two diastereoisomers
Structure (SMILES),Efficacy (Sphaerotheca fuliginea; [2]),Efficacy (Sphaerotheca fuliginea; [3]),protection (Sphaerotheca fuliginea; gherkin),Efficacy (Puccinia recondita; [2]),Efficacy (Puccinia recondita; [3]),protection (Puccinia recondita; wheat),"logP [1, 4]","logP [1, 5]","Efficacy (Uromyces appendiculatus; Table G2, dose 100 ppm)","Efficacy (Uromyces appendiculatus; Table G2, dose 500 ppm)",protection (Uromyces appendiculatus),"Efficacy (Sphaerotheca fuliginea; dose 100 ppm, gherkin)","Efficacy (Sphaerotheca fuliginea; dose 500 ppm, gherkin)","Efficacy (Puccinia recondita; dose 100 ppm, wheat)","Efficacy (Puccinia recondita; dose 500 ppm, wheat)","Efficacy (Uromyces appendiculatus; Table G1, dose 100 ppm)","Efficacy (Uromyces appendiculatus; Table G1, dose 500 ppm)",protection (Uromyces appendiculatus; listed as 1.26)
"CC(CN(C(=O)c1c(C(F)F)nn(C)c1F)C1CC1)c1ccccc1 (stereo not shown) [13 from WO-2011/151369, N-cyclopropyl-3-(difluoromethyl)-5-fluoro-1-methyl-N-(2-phenylpropyl)-1H-pyrazole-4-carboxamide, reference compound]",3 ^(a) %,63 ^(a) %,average (at least 60%) to poor (less than 10%) protection,10 ^(a) %,40 ^(a) %,poor (less than 40%) to no protection,,,,,,,,,,,,
Cn1cc(C(=O)N2CCCC2C2CCCc3ccccc32)c(C(F)F)n1 (mixture of isomers) [I.27],,,,,,,3.21,2.94,56%,100%,total to average (at least 50%) protection,,,,,,,
"Cc1nn(C)c(F)c1C(=O)N(C1CC1)C(C)C1CCCc2ccccc21 (stereo not shown) [I.2 from WO-2010/086311, N-cyclopropyl-5-fluoro-1,3-dimethyl-N-[1-(1,2,3,4-tetrahydronaphthalen-1-yl)ethyl]-1H-pyrazole-4-carboxamide, reference compound]",,,,,,,,,0%,88%,high (at least 80%) to no protection,,,,,,,
Cn1nc(C(F)F)c(C(=O)N2CCCC2C2CCCc3ccccc32)c1F (mixture of isomers) [I.26],,,total protection,,,excellent (at least 90%) to high (at least 80%) protection,3.61,3.48,100%,100%,total protection,100%,100%,88%,98%,100%,100%,total to average (at least 50%) protection
